In PubChem BioAssay AID608 (Sanford-Burnham Center for Chemical Genomics, 2007):
Several values for one entry are separate records, joined by “and”; a condition that tells them apart may be missing. Equal values may be shown once. Activity calls are given as the source filed them. No rule for the calls is given here.

Biological target: Peptidyl-prolyl cis-trans isomerase FKBP1A (Homo sapiens) (UniProt P62942)
Assay: small-molecule binding to FKBP12 – biophysical, NMR detection (AID 608)
Settings: purified FKBP12

Sequence of Peptidyl-prolyl cis-trans isomerase FKBP1A (Homo sapiens) (P62942 whole entry, looked up): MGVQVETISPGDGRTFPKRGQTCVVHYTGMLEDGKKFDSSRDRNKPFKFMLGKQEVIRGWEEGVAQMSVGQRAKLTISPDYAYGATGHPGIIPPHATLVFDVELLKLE

Structure (SMILES) | Kd
C=C1C2CC[C@@]3(C)[C@H](c4ccoc4)OC(=O)C[C@]13O[C@H]1C[C@H](OC(C)=O)C(C)(C)[C@H](CC(=O)OC)[C@@]21C | > 4 mM (inactive)
CCc1c(C)n([O-])c2c([n+]1=O)CCC2 | > 4 mM (inactive)
c1ccc(Cc2nnc(-c3ccccc3)o2)cc1 | > 4 mM (inactive)
CC(=O)c1c(O)n(C)c(=S)n(C)c1=O | > 4 mM (inactive)
C[C@@H]1O[C@@H](O[C@H]2C[C@@H](O)[C@]3(CO)C4C(CC[C@]3(O)C2)[C@@]2(O)CC[C@H](C3=CC(=O)OC3)[C@@]2(C)C[C@H]4O)[C@H](O)[C@H](O)[C@H]1O (stereo partly specified) | > 4 mM (inactive)
CN1CCC(N2CCOCC2)CC1 | > 4 mM (inactive)
CC(=O)c1cccc(NC2=NCC(C)(C)S2)c1 | > 4 mM (inactive)
O=C1C2C3C=CC(C3)C2C(=O)N1CCO (stereo unspecified) | > 4 mM (inactive)
CCn1c(-c2ccccc2)n[nH]c1=S | > 4 mM (inactive)
Cc1nnc(NC(=O)C(C)Sc2nncn2C)s1 (stereo unspecified) | > 4 mM (inactive)
Cc1ccc(S(=O)(=O)CC(N)=O)cc1 | > 4 mM (inactive)
CC(=O)Nc1ccc(CN2CCOCC2)cc1 | > 4 mM (inactive)
Cc1onc(-c2ccccc2)c1CN | > 4 mM (inactive)
COc1cc(OC)c2c(=O)c(-c3ccc4c(c3)OCO4)coc2c1 | > 4 mM (inactive)
Cc1csc(SCC(=O)N2CCCC2)n1 | > 4 mM (inactive)
O=C(O)Cn1cnc2ccccc2c1=O | > 4 mM (inactive)
O=C(C1CCCCC1)N1CCN(c2ccccc2F)CC1 | > 4 mM (inactive)
CC(C)CCCC(C)C1CCC2C3C[C@@H](O)[C@@]4(O)C[C@@H](O)CC[C@]4(C)C3CC[C@]12C (stereo partly specified) | > 4 mM (inactive)
Fc1ccc(F)c(CN2CCN(c3ncccn3)CC2)c1 | > 4 mM (inactive)
COc1cccc2c1CCC1=CC(=O)CC[C@@]12C | > 4 mM (inactive)
Nc1nc2ncc(CNc3ccc(C(=O)N[C@@H](CCC(=O)O)C(=O)O)cc3)nc2c(=O)[nH]1 | > 4 mM (inactive)
O=C(O)c1ccccc1C(=O)NCC1CCCO1 (stereo unspecified) | > 4 mM (inactive)
COc1ccccc1NC(=O)c1ccc(Br)o1 | > 4 mM (inactive)
C=C[C@@](C)(O)CCC1C(=C)C[C@H](OC(C)=O)C2C(C)(C)CCCC12C (stereo partly specified) | > 4 mM (inactive)

Structure (SMILES) | Kd
Cc1nc(-c2cccc(N)c2)cs1 | > 4 mM (inactive)
O=C(NCc1cccc(Cl)c1)c1cnccn1 | > 4 mM (inactive)
COc1ccc2c(CC(=O)O)coc2c1 | > 4 mM (inactive)
COc1ccc2c(c1OC)C(=O)O[C@@H]2[C@@H]1c2cc3c(cc2CCN1C)OCO3 | > 4 mM (inactive)
Cc1cc(C)c(NC(=O)CN2CCC(O)CC2)c(C)c1 | > 4 mM (inactive)
COc1ccc(-c2cc(=O)c3ccccc3o2)cc1 | > 4 mM (inactive)
COc1ccc2c(c1)C(NC(C)=O)C(=O)N2C (stereo unspecified) | > 4 mM (inactive)
CC1CCN(C(=S)c2ccccc2O)CC1 | > 4 mM (inactive)
COc1ccc(C(=O)/C=C/c2ccccc2)cc1 | > 4 mM (inactive)
CC1(C)CC2(C)N(N)C(=O)CN2C(=S)N1 (stereo unspecified) | > 4 mM (inactive)
COc1c(O)cc2c(c1O)[C@H]1O[C@H](CO)[C@@H](O)[C@H](O)[C@@H]1OC2=O | > 4 mM (inactive)
O=C(NCCCO)c1ccncc1 | > 4 mM (inactive)
S=C1NC(=S)NC(c2ccc3c(c2)OCO3)N1 | > 4 mM (inactive)
Cc1occc1C(=O)Nc1ccc2c(c1)CCC2 | > 4 mM (inactive)
COc1ccc(NC2=NCC(C)S2)cc1 (stereo unspecified) | > 4 mM (inactive)
COc1ccc(-c2c(OC)c3c(OC)c4c(cc3oc2=O)OC(C)(C)C=C4)cc1 | > 4 mM (inactive)
CN1C(=O)N(C)C2NC(=O)NC21 (stereo unspecified) | > 4 mM (inactive)
O=S(=O)(N1CCCCC1)n1nnc2ccccc21 | > 4 mM (inactive) and 385 µM
COCC(=O)Nc1c(C(N)=O)oc2ccccc12 | > 4 mM (inactive)
COc1cc(C2NC(=S)NC(C)=C2C(C)=O)ccc1O (stereo unspecified) | > 4 mM (inactive)
Cc1nn(-c2ccccc2)nc1C(N)=O | > 4 mM (inactive)
N=c1n(N)c2ccccc2n1CCO | > 4 mM (inactive)
CC1Cc2nc(SCC(N)=O)n(C)c(=O)c2S1 (stereo unspecified) | > 4 mM (inactive)
CS(=O)(=O)c1ccccc1C(=O)Nc1nccs1 | > 4 mM (inactive)

Structure (SMILES) | Kd
C=CC(=O)N1CC2CC(C1)c1cccc(=O)n1C2 (stereo unspecified) | > 4 mM (inactive)
COCCn1cnc2cc(C)c(C)cc21 | > 4 mM (inactive)
O=C(O)C1CC(C2CCCCN2)CN2CCCCC12 (stereo unspecified) | > 4 mM (inactive)
NC(=O)C1CCN(C(=O)c2ccccc2)CC1 | > 4 mM (inactive)
Cc1nc2nc(Cc3ccccc3)[nH]n2c(=O)c1Cl | > 4 mM (inactive)
O=C(Nc1ccccc1F)c1ccncc1 | > 4 mM (inactive)
Cn1cccc1C=C1C(=O)NC(=S)NC1=O | > 4 mM (inactive)
O=c1c2ccccc2[nH]c2ncccc12 | > 4 mM (inactive)
COc1nc(C)ccc1-c1noc(-c2ccco2)n1 | > 4 mM (inactive)
CN(C)C1CCS(=O)(=O)C1 (stereo unspecified) | > 4 mM (inactive)
O=C(O)Cn1nc(-c2ccccc2)c2ccccc2c1=O | > 4 mM (inactive)
NC(=O)c1cccnc1Oc1ccccc1 | > 4 mM (inactive)
Cc1ccc(C(=O)N2CCC(C(N)=O)CC2)cc1C | > 4 mM (inactive)
CC1(C)C2CC(=O)[C@]3(C)C(CC[C@@]4(C)[C@H](c5ccoc5)OC(=O)[C@H]5O[C@]543)[C@@]2(C)C(=O)C[C@H]1O (stereo partly specified) | > 4 mM (inactive)
Cc1cc(C)c(OCC(=O)N2CCOCC2)c(C)c1 | inactive
O=C(c1ccco1)N1C(=O)c2cccc3cccc1c23 | > 4 mM (inactive)
c1ccc(SCc2nc(-c3ccccn3)no2)cc1 | > 4 mM (inactive)
COC(=O)[C@]1(C)CCC[C@]2(C)c3ccc(C(C)C)cc3C(=O)CC12 (stereo partly specified) | > 4 mM (inactive)
CC1=CC(=O)C2C(C)(C)CCC[C@]2(C)[C@@]1(O)CCc1ccoc1 (stereo partly specified) | > 4 mM (inactive)
Cc1nnc(SCc2ccc(F)cc2)s1 | > 4 mM (inactive)
COC(=O)C1COCCN1C(=O)C(F)(F)Sc1ccc(C(C)C)cc1 (stereo unspecified) | 0.19 mM
Cc1cc(S(=O)(=O)N2CCOCC2)ccc1F | > 4 mM (inactive)
CC(C)c1ccccc1OCC(=O)N1CCOCC1 | > 4 mM (inactive)
Nc1nnc(-c2ccncc2)s1 | > 4 mM (inactive)

Structure (SMILES) | Kd
NC(=O)CN1CC(c2ccccc2)CC1=O (stereo unspecified) | > 4 mM (inactive)
Cc1nnc(Nc2ccc(S(N)(=O)=O)cc2)[nH]c1=O | > 4 mM (inactive)
Cc1c(C)[n+](=O)c(-c2cccs2)c(C)n1[O-] | > 4 mM (inactive)
O=C(Nc1ccc(N2CCCC2=O)cc1)c1cccc(F)c1 | > 4 mM (inactive)
CN1C(=O)CC[C@H]1c1cccnc1 | > 4 mM (inactive)
COC(=O)Nc1nc2c(C)cccc2s1 | > 4 mM (inactive)
CC1(O)CC2C=CC1C2 (stereo unspecified) | > 4 mM (inactive)
CC12CNCC(C)(CNC1)C2O (stereo unspecified) | > 4 mM (inactive)
O=C(Nc1ccc(OCC(=O)N2CCOCC2)cc1)c1ccccc1F | inactive
c1cc2n(c1)CCNC2c1ccncc1 (stereo unspecified) | > 4 mM (inactive)
C/C=C(\C)c1nnc(NC(=O)c2ccco2)s1 | > 4 mM (inactive)
COc1ccccc1NC(=O)C1CCCCC1 | > 4 mM (inactive)
COCC(=O)Nc1ccc(C)c(Cl)c1 | > 4 mM (inactive)
CC1(C)C2CC[C@]3(C)C(C(=O)C=C4[C@@H]5C[C@@](C)(C(=O)O)CC[C@]5(C)CC[C@]43C)[C@@]2(C)CC[C@@H]1O (stereo partly specified) | > 4 mM (inactive)
O=C(Cn1c(-c2cscn2)nc2ccccc21)Nc1ccc(Cl)cc1 | > 4 mM (inactive)
O=C(O)C1Cc2c([nH]c3ccccc23)CN1 (stereo unspecified) | > 4 mM (inactive)
Cc1nc2ccc(NC(=O)N3CCSCC3)cc2s1 | > 4 mM (inactive)
Nc1ccc(-c2cnco2)cc1 | > 4 mM (inactive)
Cc1cc(C)n(C/C=C/Cn2nc(C)cc2C)n1 | > 4 mM (inactive)
CCOC(=O)C1CCN(c2ncnc3nc[nH]c23)CC1 | > 4 mM (inactive)
NC(=O)CSc1ccc2nnc(-c3cccs3)n2n1 | > 4 mM (inactive)
Cc1cc(C)nc(/N=C(/N)Nc2cccc(F)c2)n1 | > 4 mM (inactive)
OCc1csc(-c2ccccc2)n1 | > 4 mM (inactive)
Cc1ccc(SCc2cc(=O)n3[nH]c(C)nc3n2)cc1 | > 4 mM (inactive)

Structure (SMILES) | Kd
Cc1cc(C(=O)NC(C)c2ccncc2)no1 (stereo unspecified) | > 4 mM (inactive)
O=C1CNC(=O)/C1=C/c1ccc(O)cc1 | > 4 mM (inactive)
Fc1ccc(CN2CCCNCC2)cc1 | > 4 mM (inactive)
COc1ccc(-c2oc3c(CC=C(C)C)c(O[C@@H]4O[C@H](CO)[C@@H](O)[C@H](O)[C@H]4O)cc(O)c3c(=O)c2O[C@@H]2O[C@@H](C)[C@H](O)[C@@H](O)[C@H]2O)cc1 | > 4 mM (inactive)
CN1CCc2c(sc(N)c2C#N)C1 | > 4 mM (inactive)
Cc1nn(C)c2sc(C(=O)O)cc12 | > 4 mM (inactive)
Cc1cc(C)n2nc(Cc3ccccc3)nc2n1 | > 4 mM (inactive)
CNC(=O)C1CC(=O)N(c2ccc(O)cc2)C1 (stereo unspecified) | > 4 mM (inactive)
CNC(=O)C1CCCN(S(C)(=O)=O)C1 (stereo unspecified) | > 4 mM (inactive)
COc1ccc(NC(=O)CSc2nccc(=O)[nH]2)cc1 | > 4 mM (inactive)
NC1Cc2ccccc2C1 | > 4 mM (inactive)
COc1ccc2c(c1)[nH]c1c(C)nccc12 | > 4 mM (inactive)
CCOc1ccc2nc(NS(C)(=O)=O)sc2c1 | > 4 mM (inactive)
O=c1[nH]c2ccccc2c(=O)n1CCCO | > 4 mM (inactive)
C=C[C@@](C)(O)CCC1C(=C)C[C@H](O)C2C(C)(C)CCCC12C (stereo partly specified) | > 4 mM (inactive)
Cc1noc(C)c1C(=O)Nc1cccnc1 | > 4 mM (inactive)
Nc1ccc2sccc2c1 | > 4 mM (inactive)
O=C(Nc1cccnc1)c1cnn2cccnc12 | > 4 mM (inactive)
NC(=O)C12CC3CC(C1)C(=O)C(C3)C2 | > 4 mM (inactive)
CCOC(=O)c1ccc(NS(=O)(=O)N2CCOCC2)cc1 | inactive
